# Laboratory results reported in patent US20200163984A1, “USE OF ISOVALERYL SPIRAMYCIN I, II AND/OR III IN MANUFACTURING MEDICAMENT FOR TREATING AND/OR PREVENTING TUMOR, AND MEDICAMENT” (SHENYANG FUYANG PHARMACEUTICAL TECHNOLOGY CO., LTD., priority 2017, published 2020).
# Like-named read-outs stand apart in the source and are kept apart here.
# Columns and labels:
# [1] = test system: transplanted tumor of human non-small cell lung cancer cell H1299
# [2] = test system: transplanted tumor of human breast cancer cell MCF-7; experiment: MCF-7 transplanted tumor in nude mice
# [3] = test system: transplanted tumor of human pancreatic cancer cell PANC-1; experiment: PANC-1 transplanted tumor in nude mice; settings: for Tumor Volume (mm3) (d 1): d1
# [4] = test system: transplanted tumor of mouse Lewis lung cancer; experiment: Transplanted tumor of mouse Lewis lung cancer; settings: for Tumor Volume (mm3) (d 1) / Tumor Volume (mm3) (d30) / Relative Tumor Proliferation Rate (T/C) / Relative Tumor Volume (RTV): title prints KM mouse H22 cells; for Tumor Volume (mm3) (d30): d 30; for Body Weight (g) (d1) / Body Weight (g) (d 15): mouse, in vivo
# Procedure, shortened: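 Tumour inhibition rate is (1−T/C)×100%, based on mean tumour weight in treated versus control mice, measured the day after the final dose. Treatment was intragastric at 13, 26 or 52 mg/kg for 15 days, starting one day after subcutaneous armpit inoculation of C57BL/6 mice with Lewis cells (0.2 ml, 1×10^7/mL).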
# [5] = H1299, 25 mg/kg (low dose) i.g. 30 days
# [6] = H1299, 50 mg/kg (medium dose) i.g. 30 days
# [7] = H1299, 100 mg/kg (high dose) i.g. 30 days
# [8] = MCF-7, 25 mg/kg (low dose) i.g. 30 days
# [9] = MCF-7, 50 mg/kg (medium dose) i.g. 30 days
# [10] = MCF-7, 100 mg/kg (high dose) i.g. 30 days
# [11] = PANC-1, 12.5 mg/kg (low dose) i.g. 30 days
# [12] = PANC-1, 25 mg/kg (medium dose) i.g. 30 days
# [13] = PANC-1, 50 mg/kg (high dose) i.g. 30 days
smiles,measurement,setting,value
"CO[C@@H]1[C@@H](O[C@@H]2O[C@H](C)[C@@H](O[C@H]3C[C@@](C)(O)[C@@H](OC(=O)CC(C)C)[C@H](C)O3)[C@H](N(C)C)[C@H]2O)[C@@H](CC=O)C[C@@H](C)[C@@H](O[C@H]2CC[C@H](N(C)C)[C@@H](C)O2)/C=C/C=C/C[C@@H](C)OC(=O)C[C@H]1O [Isovaleryl spiramycin I, isovaleryl spiramycin I]",Inhibition Rate (tumor growth inhibition rate),[1]; [5],22.11%
same,Relative Tumor Proliferation Rate (T/C),[1]; [5],89.42%
same,Relative Tumor Volume (RTV),[1]; [5],11.46 ± 3.83
same,Tumor Volume (d 1),[1]; [5],136.07 ± 17.13 mm3
same,Tumor Volume (d 30),[1]; [5],1513.14 ± 387.19 mm3
same,Tumor Weight,[1]; [5],1.36 ± 0.33 g
same,Inhibition Rate (tumor growth inhibition rate),[1]; [6],43.83%
same,Relative Tumor Proliferation Rate (T/C),[1]; [6],49.81%
same,Relative Tumor Volume (RTV),[1]; [6],6.39 ± 1.01
same,Tumor Volume (d 1),[1]; [6],135.51 ± 20.47 mm3
same,Tumor Volume (d 30),[1]; [6],861.71 ± 164.32 mm3
same,Tumor Weight,[1]; [6],0.98 ± 0.27 g
same,Inhibition Rate (tumor growth inhibition rate),[1]; [7],69.95%
same,Relative Tumor Proliferation Rate (T/C),[1]; [7],27.43%
same,Relative Tumor Volume (RTV),[1]; [7],3.52 ± 0.68
same,Tumor Volume (d 1),[1]; [7],137.34 ± 22.95 mm3
same,Tumor Volume (d 30),[1]; [7],470.36 ± 21.77 mm3
same,Tumor Weight,[1]; [7],0.52 ± 0.21 g
same,tumor volume and relative tumor volume compared with the model group,"[1]; H1299, low, medium and high doses, P<0.05",significantly lower
same,mouse weight compared with the model group,"[1]; mouse, in vivo",no significant changes
same,Inhibition Rate (tumor growth inhibition rate),[2]; [8],31.10%
same,Relative Tumor Proliferation Rate (T/C),[2]; [8],71.92%
same,Relative Tumor Volume (RTV),[2]; [8],12.59 ± 7.49
same,Tumor Volume (d 1),[2]; [8],139.97 ± 26.58 mm3
same,Tumor Volume (d 30),[2]; [8],1634.85 ± 789.61 mm3
same,Tumor Weight,[2]; [8],1.87 ± 0.25 g
same,Inhibition Rate (tumor growth inhibition rate),[2]; [9],51.72%
same,Relative Tumor Proliferation Rate (T/C),[2]; [9],49.05%
same,Relative Tumor Volume (RTV),[2]; [9],8.58 ± 4.41
same,Tumor Volume (d 1),[2]; [9],146.57 ± 32.97 mm3
same,Tumor Volume (d 30),[2]; [9],1162.80 ± 394.71 mm3
same,Tumor Weight,[2]; [9],1.31 ± 0.50 g
same,Inhibition Rate (tumor growth inhibition rate),[2]; [10],70.12%
same,Relative Tumor Proliferation Rate (T/C),[2]; [10],30.80%
same,Relative Tumor Volume (RTV),[2]; [10],5.39 ± 0.97
same,Tumor Volume (d 1),[2]; [10],124.02 ± 15.14 mm3
same,Tumor Volume (d 30),[2]; [10],656.95 ± 49.58 mm3
same,Tumor Weight,[2]; [10],0.81 ± 0.08 g
same,tumor volume and relative tumor volume compared with the model group,"[2]; MCF-7, low, medium and high doses, P<0.05",significantly lower
same,mouse weight compared with the model group,"[2]; mouse, in vivo",no significant changes
same,Inhibition Rate (tumor growth inhibition rate),[3]; [11],31.10%
same,Tumor Weight,[3]; [11],1.87 ± 0.25 g
same,Inhibition Rate (tumor growth inhibition rate),[3]; [12],51.72%
same,Tumor Weight,[3]; [12],1.31 ± 0.50 g
same,Inhibition Rate (tumor growth inhibition rate),[3]; [13],70.12%
same,Tumor Weight,[3]; [13],0.81 ± 0.08 g
same,Relative Tumor Proliferation Rate (T/C),"[3]; PANC-1, high dose i.g. 30 days",30.80%
same,Relative Tumor Proliferation Rate (T/C),"[3]; PANC-1, low dose i.g. 30 days",71.92%
same,tumor volume and relative tumor volume compared with the model group,"[3]; PANC-1, low, medium and high doses, P<0.05",significantly lower
same,Relative Tumor Proliferation Rate (T/C),"[3]; PANC-1, medium dose i.g. 30 days",49.05%
same,Relative Tumor Proliferation Rate (T/C),"[3]; PANC-1 nude mice, 12.5 mg/kg",71.92%
same,Relative Tumor Volume (RTV),"[3]; PANC-1 nude mice, 12.5 mg/kg",12.59 ± 7.49
same,Tumor Volume (mm3) (d 1),"[3]; PANC-1 nude mice, 12.5 mg/kg",139.97 ± 26.58 mm3
same,Tumor Volume (mm3) (d30),"[3]; PANC-1 nude mice, 12.5 mg/kg",1634.85 ± 789.61 mm3
same,Relative Tumor Proliferation Rate (T/C),"[3]; PANC-1 nude mice, 25 mg/kg",49.05%
same,Relative Tumor Volume (RTV),"[3]; PANC-1 nude mice, 25 mg/kg",8.58 ± 4.41
same,Tumor Volume (mm3) (d 1),"[3]; PANC-1 nude mice, 25 mg/kg",146.57 ± 32.97 mm3
same,Tumor Volume (mm3) (d30),"[3]; PANC-1 nude mice, 25 mg/kg",1162.80 ± 394.71 mm3
same,Relative Tumor Proliferation Rate (T/C),"[3]; PANC-1 nude mice, 50 mg/kg",30.80%
same,Relative Tumor Volume (RTV),"[3]; PANC-1 nude mice, 50 mg/kg",5.39 ± 0.97
same,Tumor Volume (mm3) (d 1),"[3]; PANC-1 nude mice, 50 mg/kg",124.02 ± 15.14 mm3
same,Tumor Volume (mm3) (d30),"[3]; PANC-1 nude mice, 50 mg/kg",656.95 ± 49.58 mm3
same,mouse weight compared with the model group,"[3]; mouse, in vivo",no significant changes
same,growth of Lewis lung cancer in mice,"[4]; 13, 26 and 52 mg/kg i.g. 15 days",significantly inhibit
same,Tumor Volume (mm3) (d 1),[4]; dose 12.5 mg/kg,104.68 ± 20.89 mm3
same,Tumor Volume (mm3) (d30),[4]; dose 12.5 mg/kg,955.73 ± 330.24 mm3
same,Relative Tumor Proliferation Rate (T/C),[4]; dose 12.5 mg/kg,57.56
same,Relative Tumor Volume (RTV),[4]; dose 12.5 mg/kg,9.22 ± 2.95
same,Inhibition Rate (%),[4]; dose 13 mg/kg,46.94%
same,Tumor Weight,[4]; dose 13 mg/kg,0.85 ± 0.24 g
same,Tumor Volume (mm3) (d 1),[4]; dose 25 mg/kg,104.31 ± 19.76 mm3
same,Tumor Volume (mm3) (d30),[4]; dose 25 mg/kg,756.20 ± 145.84 mm3
same,Relative Tumor Proliferation Rate (T/C),[4]; dose 25 mg/kg,45.51
same,Relative Tumor Volume (RTV),[4]; dose 25 mg/kg,7.29 ± 0.82
same,Inhibition Rate (%),[4]; dose 26 mg/kg,62.97%
same,Tumor Weight,[4]; dose 26 mg/kg,0.59 ± 0.06 g
same,Tumor Volume (mm3) (d 1),[4]; dose 50 mg/kg,103.79 ± 19.55 mm3
same,Tumor Volume (mm3) (d30),[4]; dose 50 mg/kg,465.26 ± 52.94 mm3
same,Relative Tumor Proliferation Rate (T/C),[4]; dose 50 mg/kg,29.05
same,Relative Tumor Volume (RTV),[4]; dose 50 mg/kg,4.65 ± 1.27
same,Inhibition Rate (%),[4]; dose 52 mg/kg,71.83%
same,Tumor Weight,[4]; dose 52 mg/kg,0.45 ± 0.14 g
same,Body Weight (g) (d1),[4]; 13 mg/kg,19.93 ± 1.20 g
same,Body Weight (g) (d 15),[4]; 13 mg/kg,22.70 ± 0.87 g
same,Body Weight (g) (d1),[4]; 26 mg/kg,19.45 ± 0.68 g
same,Body Weight (g) (d 15),[4]; 26 mg/kg,23.43 ± 1.41 g
same,Body Weight (g) (d1),[4]; 52 mg/kg,19.87 ± 1.17 g
same,Body Weight (g) (d 15),[4]; 52 mg/kg,23.25 ± 0.43 g
